Starred links: 1 amine or outer side, 2 acyl side, 3 side chain; linkers in the order of their positions; H or OH if unused. Positions of bridges follow the written chain, without caps; N, C: chain ends. Non-standard residues stand in square brackets, D forms with d. Residues, ends and D or L forms follow the SMILES beside them. *: point of attachment. Bip(4'-NHCO-C6H4-4-CH2COOH) = N[C@@H](Cc1ccc(-c2ccc(NC(=O)c3ccc(CC(=O)O)cc3)cc2)cc1)C(=O)O; X38 = O=C(O)C1CCC(C(=O)Nc2ccc(-c3ccc(C[C@H](N[*:1])C(=O)[*:2])cc3)cc2)CC1; dArg(Nω-CH2C6H4-3-CH2Gua) = N=C(N)NCc1cccc(CNC(=N)NCCC[C@@H](N)C(=O)O)c1; X47 = O=C(Nc1ccc(-c2ccc(C[C@H](N[*:1])C(=O)[*:2])cc2)cc1)c1coc2ccccc12; Bip(4'-NH) = O=C([C@H](Cc1ccc(-c2ccc(N[*:3])cc2)cc1)N[*:1])[*:2]; Indazole3carbonyl(1-CH2COOH) = O=C(O)Cn1nc(C(=O)*)c2ccccc21; Bip(4'-COOH) = N[C@@H](Cc1ccc(-c2ccc(C(=O)O)cc2)cc1)C(=O)O; Bip(4'-NHAc) = CC(=O)Nc1ccc(-c2ccc(C[C@H](N)C(=O)O)cc2)cc1; X29 = N=C(NCCC[C@@H](N[*:1])C(=O)[*:2])NCCc1ccc(F)c(F)c1; Ala(imidazol-2-yl) = N[C@@H](Cc1ncc[nH]1)C(=O)O; Ala(morpholin-4-yl) = N[C@@H](CN1CCOCC1)C(=O)O; Benzoyl(3-OCH2COOH) = O=C(O)COc1cccc(C(=O)*)c1; Phe(4-CH2NH2) = NCc1ccc(C[C@H](N)C(=O)O)cc1; Bip = N[C@@H](Cc1ccc(-c2ccccc2)cc1)C(=O)O; Morpholine(3S-CO) = O=C(O)[C@@H]1COCCN1; Ala(2-furyl) = N[C@@H](Cc1ccco1)C(=O)O; Phe(2-Me) = Cc1ccccc1C[C@H](N)C(=O)O; 2Pal = N[C@@H](Cc1ccccn1)C(=O)O; Cha = N[C@@H](CC1CCCCC1)C(=O)O; Chg = N[C@H](C(=O)O)C1CCCCC1; Tle = CC(C)(C)[C@H](N)C(=O)O; Aze = O=C(O)[C@@H]1CCN1; Sar = CNCC(=O)O
Molecular target: TNFα (Homo sapiens, UniProt P01375)
Assay: TNF-Induced HEK-Blue Assay
Assay type: cell-based
Conditions: not given

Sequence of TNFα (P01375 77-233 limits assumed): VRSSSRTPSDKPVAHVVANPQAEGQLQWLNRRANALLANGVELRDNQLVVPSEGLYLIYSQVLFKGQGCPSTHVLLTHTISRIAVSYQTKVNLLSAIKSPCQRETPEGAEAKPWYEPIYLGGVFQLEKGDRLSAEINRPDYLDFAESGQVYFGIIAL

Structure (SMILES) | IC50
CC[C@H](C)[C@@H]1NC(=O)[C@@H]2CCN2C(=O)[C@H]([C@@H](C)CC)NC(=O)[C@@H](CCCNC(=N)N)NC(=O)[C@H](CC(=O)O)NC(=O)[C@H](Cc2ccc(O)cc2)NC(=O)CN(C)C(=O)[C@H](Cc2ccc(-c3ccc(NC(=O)c4nn(CC(=O)O)c5ccccc45)cc3)cc2)NC(=O)[C@H](Cc2ccc(-c3ccccc3)cc2)NC(=O)[C@H](C(C)(C)C)NC(=O)CSC[C@@H](C(=O)NCC(N)=O)NC(=O)[C@H](CC(C)C)NC(=O)[C@H](Cc2ccc(O)cc2)NC1=O [Example 357] ({CH2CO}-[Tle][Bip][Bip(4'-NH)](Indazole3carbonyl(1-CH2COOH))[Sar]YD[dR]I[Aze]IYLCG-NH2; thioether N-13) | 0.05 to 0.2 µM
CC(C)C[C@@H]1NC(=O)[C@H](CCCNC(=N)N)NC(=O)[C@H](C(C)C)NC(=O)[C@@H]2CCCN2C(=O)[C@H](C(C)C)NC(=O)[C@@H](CCCNC(=N)NCCc2ccc(F)c(F)c2)NC(=O)[C@H](CC(=O)O)NC(=O)[C@@H]2CCCN2C(=O)CN(C)C(=O)[C@H](Cc2ccc(-c3ccc(NC(=O)c4nn(CC(=O)O)c5ccccc45)cc3)cc2)NC(=O)[C@H](Cc2ccc(-c3ccccc3)cc2)NC(=O)[C@H](CN2CCOCC2)NC(=O)CSC[C@@H](C(=O)NCC(N)=O)NC1=O [Example 423] ({CH2CO}-[Ala(morpholin-4-yl)][Bip][Bip(4'-NH)](Indazole3carbonyl(1-CH2COOH))[Sar]PD[X29]VPVRLCG-NH2; thioether N-13) | < 0.05 µM

Same assay, conditions: HEK-Blue-CD40L cells, NF-kB-driven secreted alkaline phosphatase reporter; TNFα 0.5 ng/ml; 18 h; read-out: TNF induced HEK-Blue assay IC50 value

Structure (SMILES) | IC50
CC(=O)Nc1ccc(-c2ccc(C[C@@H]3NC(=O)[C@H](Cc4ccc(-c5ccc(C(=O)O)cc5)cc4)NC(=O)[C@H](CN4CCOCC4)NC(=O)CSC[C@@H](C(=O)NCC(N)=O)NC(=O)[C@H](CC(C)C)NC(=O)[C@H](Cc4ccccc4C)NC(=O)[C@H](C(C)C)NC(=O)[C@@H]4CCCN4C(=O)[C@H](C(C)C)NC(=O)[C@@H](CCCNC(=N)N)NC(=O)[C@H](CC(=O)O)NC(=O)[C@H](Cc4ccccn4)NC(=O)CN(C)C3=O)cc2)cc1 [Example 199] ({CH2CO}-[Ala(morpholin-4-yl)][Bip(4'-COOH)][Bip(4'-NHAc)][Sar][2Pal]D[dR]VPV[Phe(2-Me)]LCG-NH2; thioether N-13) | < 0.05 µM
CC(=O)Nc1ccc(-c2ccc(C[C@@H]3NC(=O)[C@H](Cc4ccc(-c5ccc(C(=O)O)cc5)cc4)NC(=O)[C@H](C(C)(C)C)NC(=O)CSC[C@@H](C(=O)NCC(N)=O)NC(=O)[C@H](CC(C)C)NC(=O)[C@H](Cc4ccc(O)cc4)NC(=O)[C@H](C(C)C)NC(=O)[C@@H]4CCN4C(=O)[C@H](C(C)C)NC(=O)[C@@H](CCCNC(=N)N)NC(=O)[C@H](CC(=O)O)NC(=O)[C@@H]4CCCN4C(=O)CN(C)C3=O)cc2)cc1 [Example 266] ({CH2CO}-[Tle][Bip(4'-COOH)][Bip(4'-NHAc)][Sar]PD[dR]V[Aze]VYLCG-NH2; thioether N-13) | 0.05 to 0.2 µM
CC(C)C[C@@H]1NC(=O)[C@H](Cc2ccc(O)cc2)NC(=O)[C@H](C(C)C)NC(=O)[C@@H]2COCCN2C(=O)[C@H](C(C)C)NC(=O)[C@@H](CCCNC(=N)N)NC(=O)[C@H](CC(=O)O)NC(=O)[C@H](Cc2ccc(O)cc2)NC(=O)CN(C)C(=O)[C@H](Cc2ccc(-c3ccccc3)cc2)NC(=O)[C@H](Cc2ccc(-c3ccccc3)cc2)NC(=O)[C@H](CN2CCOCC2)NC(=O)CSC[C@@H](C(=O)NCC(N)=O)NC1=O [Example 143] ({CH2CO}-[Ala(morpholin-4-yl)][Bip][Bip][Sar]YD[dR]V[Morpholine(3S-CO)]VYLCG-NH2; thioether N-13) | < 0.05 µM
CC[C@H](C)[C@@H]1NC(=O)[C@@H](CCCNC(=N)N)NC(=O)[C@H](CC(=O)O)NC(=O)[C@H](Cc2cnc[nH]2)NC(=O)CN(C)C(=O)[C@H](Cc2ccc(-c3ccc(NC(=O)c4ccc(CC(=O)O)cc4)cc3)cc2)NC(=O)[C@H](Cc2ccc(-c3ccccc3)cc2)NC(=O)[C@H](CC2CCCCC2)NC(=O)CSC[C@@H](C(=O)NCC(N)=O)NC(=O)[C@H](CC(C)C)NC(=O)[C@H](Cc2cnc[nH]2)NC(=O)[C@H](C(C)C)NC(=O)[C@@H]2CCCN2C1=O [Example 445] ({CH2CO}-[Cha][Bip][Bip(4'-NHCO-C6H4-4-CH2COOH)][Sar]HD[dR]IPVHLCG-NH2; thioether N-13) | < 0.05 µM
CC(C)C[C@@H]1NC(=O)[C@H](Cc2ccc(O)cc2)NC(=O)[C@H](C(C)C)NC(=O)[C@@H]2CCN2C(=O)[C@H](C(C)C)NC(=O)[C@@H](CCCNC(=N)N)NC(=O)[C@H](CC(=O)O)NC(=O)[C@@H]2CCCN2C(=O)CN(C)C(=O)[C@H](Cc2ccc(-c3ccccc3)cc2)NC(=O)[C@H](Cc2ccc(-c3ccccc3)cc2)NC(=O)[C@H](CN2CCOCC2)NC(=O)CSC[C@@H](C(=O)NCC(N)=O)NC1=O [Example 82] ({CH2CO}-[Ala(morpholin-4-yl)][Bip][Bip][Sar]PD[dR]V[Aze]VYLCG-NH2; thioether N-13) | 0.2 to 2 µM
CC[C@H](C)[C@@H]1NC(=O)[C@@H](CCCNC(=N)N)NC(=O)[C@H](CC(=O)O)NC(=O)[C@H](Cc2cnc[nH]2)NC(=O)CN(C)C(=O)[C@H](Cc2ccc(-c3ccc(NC(=O)C4CCC(C(=O)O)CC4)cc3)cc2)NC(=O)[C@H](Cc2ccc(-c3ccccc3)cc2)NC(=O)[C@H](CC2CCCCC2)NC(=O)CSC[C@@H](C(=O)NCC(N)=O)NC(=O)[C@H](CC(C)C)NC(=O)[C@H](Cc2cnc[nH]2)NC(=O)[C@H](C(C)C)NC(=O)[C@@H]2CCCN2C1=O (stereo partly drawn) [Example 316] ({CH2CO}-[Cha][Bip][X38][Sar]HD[dR]IPVHLCG-NH2; thioether N-13) | 0.05 to 0.2 µM
CC[C@H](C)[C@@H]1NC(=O)[C@@H]2CCCN2C(=O)[C@H]([C@@H](C)CC)NC(=O)[C@@H](CCCNC(=N)N)NC(=O)[C@H](CC(=O)O)NC(=O)[C@H](Cc2ccccc2)NC(=O)CN(C)C(=O)[C@H](Cc2ccc(-c3ccc(NC(=O)c4coc5ccccc45)cc3)cc2)NC(=O)[C@H](Cc2ccc(-c3ccccc3)cc2)NC(=O)[C@H](CC2CCCCC2)NC(=O)CSC[C@@H](C(=O)NCC(N)=O)NC(=O)[C@H](CC(C)C)NC(=O)[C@H](Cc2ncc[nH]2)NC1=O [Example 401] ({CH2CO}-[Cha][Bip][X47][Sar]FD[dR]IPI[Ala(imidazol-2-yl)]LCG-NH2; thioether N-13) | 0.05 to 0.2 µM
CC(=O)Nc1ccc(-c2ccc(C[C@@H]3NC(=O)[C@H](Cc4ccc(-c5ccccc5)cc4)NC(=O)[C@H](CN4CCOCC4)NC(=O)CSC[C@@H](C(=O)NCC(N)=O)NC(=O)[C@H](CC(C)C)NC(=O)[C@H](Cc4ccc(O)cc4)NC(=O)[C@H](C4CCCCC4)NC(=O)[C@@H]4CCCN4C(=O)[C@H](C(C)C)NC(=O)[C@H](CCCNC(=N)N)NC(=O)[C@H](CC(=O)O)NC(=O)[C@@H]4CCCN4C(=O)CN(C)C3=O)cc2)cc1 [Example 210] ({CH2CO}-[Ala(morpholin-4-yl)][Bip][Bip(4'-NHAc)][Sar]PDRVP[Chg]YLCG-NH2; thioether N-13) | < 0.05 µM
CC(C)C[C@@H]1NC(=O)[C@H](CCCNC(=N)N)NC(=O)[C@H](C(C)C)NC(=O)[C@@H]2CCCN2C(=O)[C@H](C(C)C)NC(=O)[C@H](CCCNC(=N)N)NC(=O)[C@H](CC(=O)O)NC(=O)[C@H](Cc2ccc(O)cc2)NC(=O)CN(C)C(=O)[C@H](Cc2ccc(-c3ccccc3)cc2)NC(=O)[C@H](Cc2ccc(-c3ccccc3)cc2)NC(=O)[C@H](CN2CCOCC2)NC(=O)CSC[C@@H](C(=O)NCC(N)=O)NC1=O [Example 47] ({CH2CO}-[Ala(morpholin-4-yl)][Bip][Bip][Sar]YDRVPVRLCG-NH2; thioether N-13) | 0.05 to 0.2 µM
CC(=O)Nc1ccc(-c2ccc(C[C@@H]3NC(=O)[C@H](Cc4ccc(-c5ccccc5)cc4)NC(=O)[C@H](CC4CCCCC4)NC(=O)CSC[C@@H](C(=O)NCC(N)=O)NC(=O)[C@H](CC(C)C)NC(=O)[C@H](Cc4ccco4)NC(=O)[C@H](C(C)C)NC(=O)[C@@H]4CCCN4C(=O)[C@H](C(C)C)NC(=O)[C@@H](CCCNC(=N)N)NC(=O)[C@H](CC(=O)O)NC(=O)[C@@H]4CCCN4C(=O)CN(C)C3=O)cc2)cc1 [Example 288] ({CH2CO}-[Cha][Bip][Bip(4'-NHAc)][Sar]PD[dR]VPV[Ala(2-furyl)]LCG-NH2; thioether N-13) | 0.2 to 2 µM
CC(C)C[C@@H]1NC(=O)[C@H](Cc2ccc(CN)cc2)NC(=O)[C@H](C(C)C)NC(=O)[C@@H]2CCCN2C(=O)[C@H](C(C)C)NC(=O)[C@@H](CCCNC(=N)N)NC(=O)[C@H](CC(=O)O)NC(=O)[C@H](Cc2ccc(O)cc2)NC(=O)CN(C)C(=O)[C@H](Cc2ccc(-c3ccccc3)cc2)NC(=O)[C@H](Cc2ccc(-c3ccccc3)cc2)NC(=O)[C@H](CN2CCOCC2)NC(=O)CSC[C@@H](C(=O)NCC(N)=O)NC1=O [Example 150] ({CH2CO}-[Ala(morpholin-4-yl)][Bip][Bip][Sar]YD[dR]VPV[Phe(4-CH2NH2)]LCG-NH2; thioether N-13) | 0.05 to 0.2 µM
CC(C)C[C@@H]1NC(=O)[C@H](Cc2ncc[nH]2)NC(=O)[C@H](C(C)C)NC(=O)[C@@H]2CCCN2C(=O)[C@H](C(C)C)NC(=O)[C@@H](CCCNC(=N)NCc2cccc(CNC(=N)N)c2)NC(=O)[C@H](CC(=O)O)NC(=O)[C@H](Cc2ccccn2)NC(=O)CN(C)C(=O)[C@H](Cc2ccc(-c3ccc(NC(=O)c4cccc(OCC(=O)O)c4)cc3)cc2)NC(=O)[C@H](Cc2ccc(-c3ccc(C(=O)O)cc3)cc2)NC(=O)[C@H](CC2CCCCC2)NC(=O)CSC[C@@H](C(=O)NCC(N)=O)NC1=O [Example 560] ({CH2CO}-[Cha][Bip(4'-COOH)][Bip(4'-NH)](Benzoyl(3-OCH2COOH))[Sar][2Pal]D[dArg(Nω-CH2C6H4-3-CH2Gua)]VPV[Ala(imidazol-2-yl)]LCG-NH2; thioether N-13) | < 0.05 µM
CC(C)C[C@@H]1NC(=O)[C@H](Cc2ccc(O)cc2)NC(=O)[C@H](C(C)C)NC(=O)[C@@H]2CCN2C(=O)[C@H](C(C)C)NC(=O)[C@@H](CCCNC(=N)N)NC(=O)[C@H](CC(=O)O)NC(=O)[C@H](Cc2ccc(O)cc2)NC(=O)CN(C)C(=O)[C@H](Cc2ccc(-c3ccccc3)cc2)NC(=O)[C@H](Cc2ccc(-c3ccc(C(=O)O)cc3)cc2)NC(=O)[C@H](CN2CCOCC2)NC(=O)CSC[C@@H](C(=O)NCC(N)=O)NC1=O [Example 147] ({CH2CO}-[Ala(morpholin-4-yl)][Bip(4'-COOH)][Bip][Sar]YD[dR]V[Aze]VYLCG-NH2; thioether N-13) | < 0.05 µM
